Laboratory results reported in ChEMBL document CHEMBL6103588, “Promising thiazolidinedione-thiazole based multi-target and neuroprotective hybrids for Alzheimer's disease: Design, synthesis, in-vitro, in-vivo and in-silico studies” (Eur J Med Chem, 2025).

Experiments:
[1] = Neurotoxicity against human SH-SY5Y cells assessed as reduction in cell viability upto 50 uM incubated for 24 hrs by MTT assay; format: toxicity, cell-based
[2] = molecular target: Acetylcholinesterase (Electrophorus electricus, UniProt O42275); assay: Inhibition of Electric eel AChE using acetylthiocholine iodide as substrate pre-incubated for 10 mins followed by substrate addition and measured after 15 mins by DTNB reagent based Ellman's method
[3] = in vitro; conditions: PAMPA, pH 7.4
Description: Permeability of compound in PBS at pH 7.4 incubated for 20 hrs by PAMPA-BBB assay

[4] = molecular target: Beta-secretase 1 (Homo sapiens, UniProt P56817); assay: Inhibition of BACE-1 (unknown origin) 667-676- (2, 4-dinitrophenyl) Lys-Arg-Arg amide trifluoroacetate as substrate preincubated for 15 mins followed by substrate addition and measured after 2 hrs by fluorescence spectrometric analysis
[5] = Lipophilicity, logP of compound; format: physicochemical; conditions: octanol/water
[6] = molecular target: Prostaglandin G/H synthase 1 (Homo sapiens, UniProt P23219)
[7] = molecular target: Cholinesterase (Equus caballus, UniProt P81908); assay: Inhibition of equine serum BuChE using butyrylthiocholine iodide as substrate pre-incubated for 10 mins followed by substrate addition and measured after 15 mins by DTNB reagent based Ellman's method
[8] = molecular target: Cholinesterase (Homo sapiens, UniProt P06276); assay: Inhibition of BChE (unknown origin)
[9] = molecular target: T1, Amine oxidase [flavin-containing] B (Homo sapiens, UniProt P27338); conditions: read-out: INH
T1 sequence (P27338 whole entry): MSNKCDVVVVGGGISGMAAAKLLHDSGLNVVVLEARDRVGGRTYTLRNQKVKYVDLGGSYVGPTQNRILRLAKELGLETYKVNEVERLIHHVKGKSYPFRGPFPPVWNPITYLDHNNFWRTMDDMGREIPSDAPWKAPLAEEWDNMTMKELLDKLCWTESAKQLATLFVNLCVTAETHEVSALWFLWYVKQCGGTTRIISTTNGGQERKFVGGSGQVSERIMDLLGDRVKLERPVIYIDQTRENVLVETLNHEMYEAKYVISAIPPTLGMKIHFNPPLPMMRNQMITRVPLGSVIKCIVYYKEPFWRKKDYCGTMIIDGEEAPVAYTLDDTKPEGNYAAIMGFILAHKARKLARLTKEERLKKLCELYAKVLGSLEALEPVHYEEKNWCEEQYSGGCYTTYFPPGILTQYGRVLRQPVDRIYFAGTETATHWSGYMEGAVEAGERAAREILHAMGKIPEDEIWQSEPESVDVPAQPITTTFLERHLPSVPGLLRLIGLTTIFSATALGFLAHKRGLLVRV
Description: Inhibition of MAO-B (unknown origin) at 100 uM relative to control

[10] = molecular target: T2, Prostaglandin G/H synthase 2 (Homo sapiens, UniProt P35354); assay: Inhibition of human COX2 by EIA method
T2 sequence (P35354 whole entry): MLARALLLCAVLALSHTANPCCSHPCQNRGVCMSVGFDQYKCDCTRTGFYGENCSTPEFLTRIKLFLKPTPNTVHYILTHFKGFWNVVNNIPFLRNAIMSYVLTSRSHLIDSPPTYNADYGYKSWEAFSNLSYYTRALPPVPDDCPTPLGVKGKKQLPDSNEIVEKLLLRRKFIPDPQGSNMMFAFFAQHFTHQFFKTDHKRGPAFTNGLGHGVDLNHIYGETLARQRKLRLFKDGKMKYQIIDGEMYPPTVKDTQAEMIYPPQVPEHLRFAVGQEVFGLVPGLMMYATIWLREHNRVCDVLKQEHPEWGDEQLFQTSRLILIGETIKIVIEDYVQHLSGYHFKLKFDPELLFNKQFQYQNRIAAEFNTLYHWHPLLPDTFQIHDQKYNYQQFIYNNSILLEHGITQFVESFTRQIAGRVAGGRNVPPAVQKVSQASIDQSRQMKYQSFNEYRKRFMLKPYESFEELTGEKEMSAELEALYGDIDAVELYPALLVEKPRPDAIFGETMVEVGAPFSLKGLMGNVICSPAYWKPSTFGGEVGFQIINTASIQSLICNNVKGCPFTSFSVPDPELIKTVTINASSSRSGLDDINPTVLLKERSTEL

[11] = molecular target: T1, Amine oxidase [flavin-containing] B; assay: Inhibition of human MAO-B using tyramine/benzylamine as substrate measured after 30 mins by fluorometric assay
[12] = molecular target: T3, Polyunsaturated fatty acid 5-lipoxygenase (Homo sapiens, UniProt P09917); assay: Inhibition of 5-LOX (unknown origin) using linoleic acid as substrate incubated for 5 mins followed by substrate addition
T3 sequence (P09917 whole entry): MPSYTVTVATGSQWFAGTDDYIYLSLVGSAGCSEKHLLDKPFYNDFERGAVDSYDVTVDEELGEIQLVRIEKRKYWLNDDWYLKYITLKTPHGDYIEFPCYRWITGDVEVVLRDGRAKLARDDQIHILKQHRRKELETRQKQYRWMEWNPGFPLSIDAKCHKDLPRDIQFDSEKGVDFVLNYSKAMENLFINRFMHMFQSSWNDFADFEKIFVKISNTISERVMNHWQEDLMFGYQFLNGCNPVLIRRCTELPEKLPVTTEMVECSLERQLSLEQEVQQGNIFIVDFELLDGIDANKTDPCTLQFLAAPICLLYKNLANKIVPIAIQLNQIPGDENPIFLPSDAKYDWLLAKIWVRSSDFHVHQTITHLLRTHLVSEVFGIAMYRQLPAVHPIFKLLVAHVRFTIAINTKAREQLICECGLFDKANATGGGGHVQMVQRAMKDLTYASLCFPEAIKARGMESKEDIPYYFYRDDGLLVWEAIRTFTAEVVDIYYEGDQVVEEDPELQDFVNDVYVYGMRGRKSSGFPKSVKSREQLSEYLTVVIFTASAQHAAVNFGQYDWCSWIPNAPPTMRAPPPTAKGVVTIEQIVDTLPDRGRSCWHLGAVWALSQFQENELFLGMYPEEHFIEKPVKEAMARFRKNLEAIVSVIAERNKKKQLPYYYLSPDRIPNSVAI

[13] = molecular target: T2, Prostaglandin G/H synthase 2
Description: Inhibition of COX-2 (unknown origin) using arachidonic acid as substrate and in presence of TMPD preincubated for 5 mins followed by substrate addition and measured after 5 mins by UV visible spectrophotometric analysis

[14] = molecular target: T4, Amine oxidase [flavin-containing] A (Homo sapiens, UniProt P21397); assay: Inhibition of human MAO-A using tyramine/benzylamine as substrate measured after 30 mins by fluorometric assay
T4 sequence (P21397 whole entry): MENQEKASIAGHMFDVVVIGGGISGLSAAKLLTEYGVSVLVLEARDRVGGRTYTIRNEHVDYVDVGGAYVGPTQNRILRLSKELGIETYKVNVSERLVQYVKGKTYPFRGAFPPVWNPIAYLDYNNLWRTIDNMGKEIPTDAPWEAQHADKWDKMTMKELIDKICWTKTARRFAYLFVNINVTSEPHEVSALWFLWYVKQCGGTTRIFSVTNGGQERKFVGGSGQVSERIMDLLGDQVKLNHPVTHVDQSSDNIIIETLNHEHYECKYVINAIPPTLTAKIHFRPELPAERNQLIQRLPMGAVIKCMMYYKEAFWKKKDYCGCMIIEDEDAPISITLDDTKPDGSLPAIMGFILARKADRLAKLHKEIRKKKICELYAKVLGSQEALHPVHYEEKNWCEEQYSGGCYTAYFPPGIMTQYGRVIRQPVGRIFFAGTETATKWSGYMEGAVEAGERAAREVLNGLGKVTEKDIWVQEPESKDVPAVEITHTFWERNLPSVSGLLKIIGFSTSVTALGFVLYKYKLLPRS

[15] = molecular target: T1, Amine oxidase [flavin-containing] B; assay: Inhibition of MAO-B (unknown origin)
[16] = molecular target: Acetylcholinesterase (Homo sapiens, UniProt P22303); assay: Inhibition of AChE (unknown origin) using acetylthiocholine iodide as substrate pre-incubated for 30 mins followed by substrate addition and measured after 30 mins by DTNB reagent based Ellman's method
Chain of Acetylcholinesterase (Homo sapiens, UniProt P22303) (P22303 whole entry): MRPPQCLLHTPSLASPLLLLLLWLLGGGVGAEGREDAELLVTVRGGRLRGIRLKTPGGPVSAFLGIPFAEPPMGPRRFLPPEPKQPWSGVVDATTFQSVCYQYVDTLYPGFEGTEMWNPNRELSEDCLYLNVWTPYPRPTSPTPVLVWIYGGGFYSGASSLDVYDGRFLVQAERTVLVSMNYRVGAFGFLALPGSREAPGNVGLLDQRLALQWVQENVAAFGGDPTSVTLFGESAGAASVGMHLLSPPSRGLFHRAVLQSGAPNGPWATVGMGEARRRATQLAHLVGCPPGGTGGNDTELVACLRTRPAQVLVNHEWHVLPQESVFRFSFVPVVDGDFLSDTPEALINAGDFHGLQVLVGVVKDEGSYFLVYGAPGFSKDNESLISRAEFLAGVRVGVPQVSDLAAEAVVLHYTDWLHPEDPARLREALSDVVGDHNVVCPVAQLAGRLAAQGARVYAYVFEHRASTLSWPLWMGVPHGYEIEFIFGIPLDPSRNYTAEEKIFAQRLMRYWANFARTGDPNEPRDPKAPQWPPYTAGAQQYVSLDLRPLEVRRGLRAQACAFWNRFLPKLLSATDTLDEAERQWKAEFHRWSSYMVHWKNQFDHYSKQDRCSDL

Chain of Prostaglandin G/H synthase 1 (P23219 whole entry): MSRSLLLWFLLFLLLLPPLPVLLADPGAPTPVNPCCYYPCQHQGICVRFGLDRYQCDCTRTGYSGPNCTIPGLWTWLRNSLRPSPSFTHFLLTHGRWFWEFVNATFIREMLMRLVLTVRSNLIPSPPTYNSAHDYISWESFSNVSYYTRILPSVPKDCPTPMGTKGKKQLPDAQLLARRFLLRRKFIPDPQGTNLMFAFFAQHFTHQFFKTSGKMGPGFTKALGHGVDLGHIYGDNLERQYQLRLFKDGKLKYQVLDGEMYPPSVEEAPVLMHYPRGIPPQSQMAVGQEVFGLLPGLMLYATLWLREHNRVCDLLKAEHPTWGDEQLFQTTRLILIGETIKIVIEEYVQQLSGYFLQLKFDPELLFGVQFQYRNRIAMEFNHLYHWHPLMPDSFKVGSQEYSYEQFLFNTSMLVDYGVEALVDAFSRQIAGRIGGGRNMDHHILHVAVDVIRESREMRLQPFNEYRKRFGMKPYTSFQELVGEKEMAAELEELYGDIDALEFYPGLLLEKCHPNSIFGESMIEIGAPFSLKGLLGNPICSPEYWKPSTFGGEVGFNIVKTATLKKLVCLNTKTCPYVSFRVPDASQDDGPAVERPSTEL
Chain of Cholinesterase (Equus caballus, UniProt P81908) (P81908 whole entry): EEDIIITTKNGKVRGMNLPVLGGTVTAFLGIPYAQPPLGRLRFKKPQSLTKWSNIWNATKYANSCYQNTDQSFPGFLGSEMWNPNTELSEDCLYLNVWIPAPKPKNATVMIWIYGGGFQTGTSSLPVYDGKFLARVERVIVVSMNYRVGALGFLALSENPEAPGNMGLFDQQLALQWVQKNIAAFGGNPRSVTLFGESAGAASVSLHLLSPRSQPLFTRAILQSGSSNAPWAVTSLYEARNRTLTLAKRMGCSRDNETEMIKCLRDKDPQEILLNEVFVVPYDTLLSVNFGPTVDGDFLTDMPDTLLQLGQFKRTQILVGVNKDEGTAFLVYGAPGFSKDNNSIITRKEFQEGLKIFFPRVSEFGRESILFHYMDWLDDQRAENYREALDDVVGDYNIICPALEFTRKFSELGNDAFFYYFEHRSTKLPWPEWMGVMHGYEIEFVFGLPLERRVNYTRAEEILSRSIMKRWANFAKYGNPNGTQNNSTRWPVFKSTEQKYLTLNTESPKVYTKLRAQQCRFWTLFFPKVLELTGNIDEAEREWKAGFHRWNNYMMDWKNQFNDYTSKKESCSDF
Chain of Acetylcholinesterase (Electrophorus electricus, UniProt O42275) (O42275 whole entry): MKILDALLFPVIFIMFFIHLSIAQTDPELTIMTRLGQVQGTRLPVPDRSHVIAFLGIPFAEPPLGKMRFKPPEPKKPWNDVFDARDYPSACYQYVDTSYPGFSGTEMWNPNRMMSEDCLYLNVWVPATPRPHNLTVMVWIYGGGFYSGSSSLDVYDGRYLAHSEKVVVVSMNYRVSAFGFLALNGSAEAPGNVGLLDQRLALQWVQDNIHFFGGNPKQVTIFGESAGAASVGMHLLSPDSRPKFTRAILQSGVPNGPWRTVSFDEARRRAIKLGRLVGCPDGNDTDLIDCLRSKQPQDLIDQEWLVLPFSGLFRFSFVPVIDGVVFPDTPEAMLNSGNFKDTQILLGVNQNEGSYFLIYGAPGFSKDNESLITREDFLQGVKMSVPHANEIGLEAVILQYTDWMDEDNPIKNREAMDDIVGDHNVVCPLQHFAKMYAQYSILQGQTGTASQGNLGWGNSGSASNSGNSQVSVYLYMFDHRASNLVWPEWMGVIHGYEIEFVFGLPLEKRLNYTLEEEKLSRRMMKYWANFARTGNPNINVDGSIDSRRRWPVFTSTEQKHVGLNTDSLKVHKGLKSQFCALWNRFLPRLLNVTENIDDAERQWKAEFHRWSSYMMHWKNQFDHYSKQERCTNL
Chain of Beta-secretase 1 (P56817 whole entry): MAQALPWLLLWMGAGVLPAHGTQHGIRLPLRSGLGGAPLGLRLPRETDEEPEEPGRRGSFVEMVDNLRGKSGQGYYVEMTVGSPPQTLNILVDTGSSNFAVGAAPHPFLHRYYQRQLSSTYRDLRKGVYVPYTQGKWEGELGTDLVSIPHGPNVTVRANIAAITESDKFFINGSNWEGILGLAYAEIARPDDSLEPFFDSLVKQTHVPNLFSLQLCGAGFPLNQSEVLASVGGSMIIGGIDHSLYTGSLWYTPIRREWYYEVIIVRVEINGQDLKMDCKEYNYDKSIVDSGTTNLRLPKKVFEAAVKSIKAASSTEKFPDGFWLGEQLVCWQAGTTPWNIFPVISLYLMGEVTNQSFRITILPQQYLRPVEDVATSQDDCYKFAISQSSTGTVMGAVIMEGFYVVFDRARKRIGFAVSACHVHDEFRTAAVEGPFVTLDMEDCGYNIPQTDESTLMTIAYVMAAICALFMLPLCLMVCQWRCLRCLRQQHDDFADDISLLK
Chain of Cholinesterase (Homo sapiens, UniProt P06276) (P06276 whole entry): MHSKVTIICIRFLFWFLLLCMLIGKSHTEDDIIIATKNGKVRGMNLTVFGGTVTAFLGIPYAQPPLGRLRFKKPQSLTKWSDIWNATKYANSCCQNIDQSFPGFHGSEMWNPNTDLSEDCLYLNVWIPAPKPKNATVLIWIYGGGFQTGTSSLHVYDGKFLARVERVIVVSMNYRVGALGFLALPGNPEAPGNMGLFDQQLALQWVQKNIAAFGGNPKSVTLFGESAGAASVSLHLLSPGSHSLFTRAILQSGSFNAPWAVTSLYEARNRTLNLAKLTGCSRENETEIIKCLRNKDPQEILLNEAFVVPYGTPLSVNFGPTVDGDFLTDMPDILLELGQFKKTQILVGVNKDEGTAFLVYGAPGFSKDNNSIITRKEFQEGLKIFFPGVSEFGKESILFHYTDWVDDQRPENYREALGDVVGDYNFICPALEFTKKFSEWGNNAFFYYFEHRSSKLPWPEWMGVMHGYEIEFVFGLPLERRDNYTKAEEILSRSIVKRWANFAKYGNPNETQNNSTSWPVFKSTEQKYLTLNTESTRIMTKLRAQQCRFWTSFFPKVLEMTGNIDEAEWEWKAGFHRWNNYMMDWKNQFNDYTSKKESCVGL

O=C1S/C(=C\c2ccc(-c3ccccc3)cc2)C(=O)N1CNc1nc(-c2ccccc2)cs1
Activity [1]: Non-toxic
IC50 ([2]; read-out: IC50): 63 nM
Papp at 20 h [3]: 14.2 ×10⁻⁶ cm/s
IC50 [4]: Not_active
logP [5]: 6.78

O=C1S/C(=C\c2ccccc2)C(=O)N1c1csc(Nc2ccccc2)n1
IC50 ([2]; read-out: IC50): 290 nM
IC50 ([4]; read-out: IC50): 10200 nM
IC50 ([6]; read-out: IC50): 29300 nM
IC50 [7]: 7180 nM

O=C(CN1C(=O)S/C(=C\c2ccc(O)cc2)C1=O)Nc1nccs1
IC50 ([2]; read-out: IC50): 9030 nM
IC50 ([6]; read-out: IC50): 51800 nM

O=C(CCN1CCCC1)Nc1nc2ccc(Br)cc2s1
IC50 [8]: 12000 nM
inhibition at 100 µM [9]: 66%

O=C1S/C(=C\c2ccc(O)cc2)C(=O)N1CNc1nc2ccccc2s1
IC50 ([2]; read-out: IC50): 5980 nM

Cc1ccc2sc(NC(=O)CCN3CCCC3)nc2c1
IC50 [8]: 15000 nM
inhibition at 100 µM [9]: 60%

CS(=O)(=O)c1ccc(-n2cc(/C=C3/SC(=O)NC3=O)c(-c3ccccc3)n2)cc1
IC50 [10]: 480 nM

O=C1S/C(=C\c2c[nH]c3ccccc23)C(=O)N1c1csc(Nc2ccccc2)n1
IC50 ([2]; read-out: IC50): 690 nM
IC50 ([4]; read-out: IC50): 19200 nM
IC50 ([6]; read-out: IC50): 33400 nM
IC50 [7]: 17400 nM

O=C1S/C(=C\c2ccccc2)C(=O)N1CNc1nc(-c2cc(Cl)cs2)c(Nc2ccccc2)s1
IC50 [2]: Not_active
IC50 ([4]; read-out: IC50): 490 nM
IC50 [6]: Not_active
IC50 [7]: 230 nM

O=C(CN1C(=O)S/C(=C\c2c[nH]c3ccccc23)C1=O)Nc1nccs1
IC50 ([2]; read-out: IC50): 160 nM
IC50 ([4]; read-out: IC50): 1180 nM

O=C(/C=C/c1ccccc1)Nc1ccc2sc(NCN3C(=O)CSC3=O)nc2c1
IC50 ([2]; read-out: IC50): 9070 nM
IC50 [11]: 14700 nM
IC50 [4]: Not_active
IC50 [12]: 210 nM
IC50 [13]: 107 nM
IC50 ([14]; read-out: IC50): 65400 nM

O=C(/C=C/c1ccc(-c2ccccc2)cc1)Nc1nc2ccc(O)cc2s1
IC50 [15]: 37 nM
IC50 [16]: 71 nM

Cc1nnc2n1-c1ccc(Cl)cc1C(c1ccccc1)=NC2 [ALPRAZOLAM]
Papp at 20 h [3]: 5.59 ×10⁻⁶ cm/s

O=C1S/C(=C\c2c[nH]c3ccccc23)C(=O)N1CNc1nc(-c2ccccc2)cs1
Activity [1]: Non-toxic
IC50 ([2]; read-out: IC50): 52 nM
Papp at 20 h [3]: 10.7 ×10⁻⁶ cm/s
IC50 ([4]; read-out: IC50): 760 nM
logP [5]: 4.65

O=C(CN1C(=O)S/C(=C\c2c[nH]c3ccccc23)C1=O)Nc1nc2ccccc2s1
IC50 ([2]; read-out: IC50): 450 nM
IC50 ([4]; read-out: IC50): 910 nM
IC50 ([6]; read-out: IC50): 42500 nM

O=C(CN1C(=O)S/C(=C\c2ccc(O)cc2)C1=O)Nc1nc2ccccc2s1
IC50 ([2]; read-out: IC50): 2760 nM
IC50 [14]: Not_active

CCn1cc(C(=O)O)c(=O)c2cc(F)c(N3CCNC(C)C3)c(F)c21 (stereo not given) [LOMEFLOXACIN]
Papp at 20 h [3]: 1.13 ×10⁻⁶ cm/s

C/C=C1\SC(=O)N(CNc2nc(-c3cc(Cl)cs3)c(Nc3ccc(S(N)(=O)=O)cc3)s2)C1=O
Activity [1]: Non-toxic
IC50 [2]: Not_active
Papp at 20 h [3]: 9.1 ×10⁻⁶ cm/s
IC50 ([4]; read-out: IC50): 510 nM
IC50 [6]: Not_active
logP [5]: 4.86
IC50 [7]: 110 nM

COc1ccc(C2CC(c3ccc(O)cc3)=NN2c2nc3ccc(C)cc3s2)cc1OC (stereo not given)
IC50 [16]: 8690 nM
